For the first test, the target named is T1, human OX2R (Homo sapiens, UniProt O43614).
T1 construct: expressed in transfected cells; host or cells: CHO (Chinese hamster ovary) cells, grown under G418 selection
T1 sequence (O43614 1-444): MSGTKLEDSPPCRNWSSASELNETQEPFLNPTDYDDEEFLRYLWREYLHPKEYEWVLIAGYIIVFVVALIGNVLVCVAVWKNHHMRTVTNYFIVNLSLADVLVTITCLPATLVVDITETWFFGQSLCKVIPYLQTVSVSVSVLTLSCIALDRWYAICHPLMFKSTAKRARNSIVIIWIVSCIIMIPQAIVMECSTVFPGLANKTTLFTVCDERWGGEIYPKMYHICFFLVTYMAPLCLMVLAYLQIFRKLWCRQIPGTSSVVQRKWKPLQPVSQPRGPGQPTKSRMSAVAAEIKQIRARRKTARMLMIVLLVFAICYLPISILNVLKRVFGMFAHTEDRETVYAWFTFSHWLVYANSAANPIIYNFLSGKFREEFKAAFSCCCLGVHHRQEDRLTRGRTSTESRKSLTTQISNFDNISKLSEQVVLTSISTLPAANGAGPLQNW
Put plainly: IPOne (IP-1) orexin receptor agonist assay in CHO cells expressing human OX2R. The class given is cell-based. The note with it: CHO, percent of mean max effect of a reference compound at 1 uM with 100% activity vs Orexin A, human OX2R. The method in brief: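 CHO cells with human OX2R treated 2 h at 37 °C with 10-point ½-log compound dilutions in stimulation buffer; IP-1 accumulation read by HTRF (665/620 nm) after 60 min detection. EC50 from four-parameter fit; % effect versus a 1 uM reference agonist.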
For orientation: Emax means the maximal effect, on the per cent scale that the assay sets. For `COC(=O)N1[C@H](C)C[C@H](NS(=O)(=O)N(C)C)[C@@H]1COC1CCC2(c3ncc(F)cn3)CC2C1` (stereo partly drawn) [Example 169, methyl (2R,3S,5R)-3-((N,N-dimethylsulfamoyl)amino)-2-(((6-(5-fluoropyrimidin-2-yl)bicyclo[4.1.0]heptan-3-yl)oxy)methyl)-5-methylpyrrolidine-1-carboxylate], the Emax stood at 100%.

The same test, now with this note: IPOne assay, CHO cells expressing human OX2R, 2 hours incubation; read-out: hoX2R_IP IC50.
By IC50 is commonly meant the concentration that gives 50% inhibition. For the compound `COC[C@@H]1C[C@H](NS(C)(=O)=O)[C@H](CO[C@H]2CC[C@@]3(c4ncc(F)cn4)C[C@H]3C2)N1C(=O)OC` [Example 132, methyl (2R,3S,5S)-2-((((1S,3S,6R)-6-(5-fluoropyrimidin-2-yl)bicyclo[4.1.0]heptan-3-yl)oxy)methyl)-5-(methoxymethyl)-3-(methylsulfonamido)pyrrolidine-1-carboxylate], the IC50 came to 9.7 nM.

For the compound `COC(=O)N1[C@H](C)C[C@H](NS(C)(=O)=O)[C@@H]1COC1CCC2(c3ncc(F)cn3)CC2C1` (stereo partly drawn) [Example 135, methyl (2R,3S,5R)-2-(((6-(5-fluoropyrimidin-2-yl)bicyclo[4.1.0]heptan-3-yl)oxy)methyl)-5-methyl-3-(methylsulfonamido)pyrrolidine-1-carboxylate], the IC50 came to 6.3 nM. The same measure, in the same setting: under `COC(=O)N1[C@H](C)C[C@H](NS(C)(=O)=O)[C@@H]1COC1CCC2(c3ncc(Cl)cn3)CC2C1` (stereo partly drawn) [Example 140, methyl (2R,3S,5R)-2-(((6-(5-chloropyrimidin-2-yl)bicyclo[4.1.0]heptan-3-yl)oxy)methyl)-5-methyl-3-(methylsulfonamido)pyrrolidine-1-carboxylate] stands 11.1 nM; under `COC(=O)N1[C@H](C)C[C@H](NS(C)(=O)=O)[C@@H]1COC1CCC2(c3nccs3)CC2C1` (stereo partly drawn) [Example 149, methyl (2R,3S,5R)-5-methyl-3-(methylsulfonamido)-2-(((6-(thiazol-2-yl)bicyclo[4.1.0]heptan-3-yl)oxy)methyl)pyrrolidine-1-carboxylate], 179 nM. On the same count and under the same terms, the same measure for `CC(C)OC(=O)N1[C@H](C)C[C@H](NS(C)(=O)=O)[C@@H]1COC1CCC2(c3ncc(Cl)cn3)CC2C1` (stereo partly drawn) [Example 154, isopropyl (2R,3S,5R)-2-(((6-(5-chloropyrimidin-2-yl)bicyclo[4.1.0]heptan-3-yl)oxy)methyl)-5-methyl-3-(methylsulfonamido)pyrrolidine-1-carboxylate]: 16.9 nM; for `COC(=O)N1[C@H](C)C[C@H](NS(C)(=O)=O)[C@@H]1COC1CCC2(c3ncc(C)cn3)CC2C1` (stereo partly drawn) [Example 159, methyl (2R,3S,5R)-5-methyl-2-(((6-(5-methylpyrimidin-2-yl)bicyclo[4.1.0]heptan-3-yl)oxy)methyl)-3-(methylsulfonamido)pyrrolidine-1-carboxylate]: 79.4 nM. Turning to `CC(C)OC(=O)N1[C@H](C)C[C@H](NS(=O)(=O)N(C)C)[C@@H]1COC1CCC2(c3ncc(F)cn3)CC2C1` (stereo partly drawn) [Example 164, isopropyl (2R,3S,5R)-3-((N,N-dimethylsulfamoyl)amino)-2-(((6-(5-fluoropyrimidin-2-yl)bicyclo[4.1.0]heptan-3-yl)oxy)methyl)-5-methylpyrrolidine-1-carboxylate], the IC50 was 2.6 nM. With `CC(C)OC(=O)N1[C@H](C)C[C@H](NS(=O)(=O)N(C)C)[C@@H]1COC1CCC2(c3ncccn3)CC2C1` (stereo partly drawn) [Example 174, isopropyl (2R,3S,5R)-3-((N,N-dimethylsulfamoyl)amino)-5-methyl-2-(((6-(pyrimidin-2-yl)bicyclo[4.1.0]heptan-3-yl)oxy)methyl)pyrrolidine-1-carboxylate], the IC50 stood at 7.5 nM.

As for `COC(=O)N1[C@@H]2CCC[C@@H]2[C@H](NS(C)(=O)=O)[C@@H]1COC1CCC2(c3ncccn3)CC2C1` (stereo partly drawn) [Example 175, methyl (2R,3S,3aS,6aR)-3-(methylsulfonamido)-2-(((6-(pyrimidin-2-yl)bicyclo[4.1.0]heptan-3-yl)oxy)methyl)hexahydrocyclopenta[b]pyrrole-1(2H)-carboxylate], the IC50 was determined as 22.6 nM.

`COC(=O)N1CC[C@H](NS(C)(=O)=O)[C@@H]1COC1CCC2(c3ncccn3)CC2C1` (stereo partly drawn) [Example 185, methyl (2R,3S)-3-(methylsulfonamido)-2-(((6-(pyrimidin-2-yl)bicyclo[4.1.0]heptan-3-yl)oxy)methyl)pyrrolidine-1-carboxylate]: the IC50 was 1620 nM.

For the origin of these results see patent publication US20230365533A1, “BICYCLOHEPTANE PYRROLIDINE OREXIN RECEPTOR AGONISTS” (MERCK SHARP & DOHME CORP., priority 2021, published 2023).
